Measured values reported in patent US20110130388A1, “PROPHYLACTIC OR THERAPEUTIC AGENT FOR AXIAL MYOPIA” (priority 2008, published 2011).

Tests used:
[1] = test system: form-deprivation myopia; settings: animal experiment level; cited from earlier work
[2] = test system: myopia; settings: 2-year clinical trial, children aged 8 to 12; cited from earlier work
[3] = test system: chicken model of form-deprivation myopia; test: Axial length suppression test with chicken model of form-deprivation myopia (II), ophthalmic instillation; format: in vivo, chicks (white leghorn); settings: hydroxyfasudil 500 nmol/1000 μL, 1 drop (about 5 μl) instilled once daily for 4 weeks, N = 10, * P < 0.05, t-test vs control
From the text: Chicken models of form-deprivation myopia were made in the same manner as in Example 1. That is, chicks (white leghorn) 6 days of age were obtained, and one eye of each chick was covered with a mask hand-made of vinyl tape. The right eye of every chick was covered, and the left eye was used as a control. The chicks were kept under usual breeding conditions.
As a Rho kinase inhibitor, hydroxyfasudil hydrochloride (made by SIGMA; see the above formula (III); hereinafter, abbreviated to “hydroxyfasudil”) was used. Hydroxyfasudil was dissolved in BSS Plus (registered trademark, made by Alcon) so that the concentration was 10 mM, and 50 μL of this solution was diluted with saline to 1000 μL. A hydroxyfasudil solution at a concentration of 500 nmol/1000 μL was thus prepared.
To chicks to which myopia was being induced by the mask, hydroxyfasudil was instilled once daily for 4 weeks. Specifically, 1 drop (about 5 μl) of the above-mentioned hydroxyfasudil solution was instilled with use of a syringe with needle for insulin subcutaneous administration, “Low Dose” 30 G (made by Becton, Dickinson and Company). The instillation was performed to the right eye and the left eye.
To the control, BSS Plus was intravitreally injected once a week (every 7 days). Specifically, the intravitreal injection was performed to a superotemporal site about 3 mm off the corneal ring avoiding cartilage tissue of the lens and sclera with use of the above-mentioned “Low Dose”. The injection to the right eye and the left eye was performed 4 times in total.
Four weeks after the induction of myopia, the chicks were sacrificed. The eyeballs were enucleated and the right eyeballs and the left eyeballs were measured for the size with a caliper. The degree of axial myopia was evaluated based on the axial length and the greatest transverse diameter. The differences of the axial length and the greatest transverse diameter between the right eye and the left eye were calculated to indicate the degree of myopia. Between the group treated with hydroxyfasudil and the control group, the degree of myopia induction was compared.

[4] = test system: chicken model of form-deprivation myopia; test: Axial length suppression test with chicken model of form-deprivation myopia (I), intravitreal injection; format: in vivo, chicks (white leghorn); settings: hydroxyfasudil 20 μL intravitreally once a week (about 1 μM in the eye), four weeks after induction of myopia, N = 7, * P < 0.05 vs control
From the text: Chicks (white leghorn) 6 days of age were obtained, and one eye of each chick was covered with a mask hand-made of vinyl tape. The right eye of every chick was covered, and the left eye was used as a control. The chicks were kept under usual breeding conditions.
As a Rho kinase inhibitor, Y27632 dihydrochloride (made by Wako Pure Chemical Industries; see the above formula (I); hereinafter, abbreviated to “Y27632”) and hydroxyfasudil hydrochloride (made by SIGMA; see the above formula (III); hereinafter, abbreviated to “hydroxyfasudil”) were used. Y27632 was prepared at 50 μM in saline. Hydroxyfasudil was prepared at 1 mM in saline. To the control, saline was administered.
Into the vitreous chambers of the chicks to which myopia was being induced by the mask, Y27632 or hydroxyfasudil was injected once a week (every 7 days). Specifically, to the chicks under anesthesia with Ketalar (registered trademark) and Selactar (registered trademark), injection to a site about 2 mm off the corneal ring was performed with use of a syringe for insulin injection.
To the Y27632 treatment group, 50 μL of the 50 μM Y27632 solution was intravitreally injected. Since the chick eyeball volume is about 1 mL, the final concentration of Y27632 in the eye was about 2.5 μM. To a control group not treated with Y27632, 50 μL of saline was intravitreally injected.
To the hydroxyfasudil treatment group, 20 μL of a diluted hydroxyfasudil solution prepared by diluting 1 μL of the 1 mM hydroxyfasudil solution to 20 μL was intravitreally injected. Since the chick eyeball volume is about 1 mL, the final concentration of hydroxyfasudil in the eye was about 1 μM. To a control group not treated with hydroxyfasudil, 20 μL of saline was intravitreally injected.
Four weeks after the induction of myopia, the chicks were sacrificed. The eyeballs were enucleated and the right eyeball and the left eyeball were measured for the size with a caliper. The degree of axial myopia was evaluated based on the axial length and the greatest transverse diameter. The differences of the axial length and the greatest transverse diameter between the right eye and the left eye were calculated to indicate the degree of myopia. Between the groups treated with the above-mentioned drugs and the respective control groups, the degree of myopia induction was compared.

[5] = test system: axial length extension; settings: animal experiments; cited from earlier work
[6] = test system: progress of myopia; settings: reported in Taiwan; cited from earlier work

SMILES: CN1CCN(CC(=O)N2c3ccccc3C(=O)Nc3cccnc32)CC1 [Pirenzepine]
- Form-deprivation myopia (axial length extension) [1]: prevented form-deprivation myopia
- Accommodative myopia (refraction of the lens) [2]: significant difference
- Axial length [2]: no significant difference

SMILES: O=S(=O)(c1cccc2c(O)nccc12)N1CCCNCC1 [Hydroxyfasudil, 1-(1-hydroxy-5-isoquinolinesulfonyl)homopiperazine]
- Axial length, average right-left difference [3]: 0.61* mm
- Greatest transverse diameter, average right-left difference [3]: 0.91* mm
- Axial length, average right-left difference ([3]; listed as hydroxyfasudil): significantly reduced
- Greatest transverse diameter, average right-left difference ([3]; listed as hydroxyfasudil): significantly reduced
- Axial length, average right-left difference [4]: 0.37* mm
- Greatest transverse diameter, average right-left difference [4]: 0.48* mm
- Axial length, average right-left difference ([4]; listed as hydroxyfasudil): significantly reduced
- Greatest transverse diameter, average right-left difference ([4]; listed as hydroxyfasudil): significantly reduced

SMILES: CN1[C@@H]2CC[C@H]1C[C@@H](OC(=O)C(CO)c1ccccc1)C2 (stereo partly shown) [Atropine]
- Axial length extension [5]: suppresses axial length extension
- Progress of myopia [6]: statistically significant inhibition of the progress of myopia
